{"source": "paper PMC5497784", "about": "(Cell metabolism, 2017)", "biological_target": "IRE1α (Homo sapiens, UniProt O75460)", "sequence (O75460 469-977)": "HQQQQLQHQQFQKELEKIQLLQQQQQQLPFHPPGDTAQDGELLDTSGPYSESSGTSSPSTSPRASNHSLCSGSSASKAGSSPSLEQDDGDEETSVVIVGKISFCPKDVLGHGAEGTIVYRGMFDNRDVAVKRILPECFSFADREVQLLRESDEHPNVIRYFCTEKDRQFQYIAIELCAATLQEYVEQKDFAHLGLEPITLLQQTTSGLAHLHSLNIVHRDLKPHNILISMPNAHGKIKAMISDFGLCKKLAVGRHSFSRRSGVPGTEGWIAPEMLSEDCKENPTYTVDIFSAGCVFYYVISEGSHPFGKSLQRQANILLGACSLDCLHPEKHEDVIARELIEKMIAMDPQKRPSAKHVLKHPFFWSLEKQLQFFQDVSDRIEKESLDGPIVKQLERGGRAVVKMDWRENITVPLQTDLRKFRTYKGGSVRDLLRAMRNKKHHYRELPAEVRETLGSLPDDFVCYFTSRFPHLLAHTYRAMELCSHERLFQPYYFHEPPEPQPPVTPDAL", "assay": "fluorescent XBP1 mini-substrate RNase assay with recombinant IRE1α*", "format": "biochemical"}
{"smiles": "CC(C)(C)c1nc(-c2ccc(NC(=O)Nc3cccc(C(F)(F)F)c3)c3ccccc23)c2c(N)nccn12", "note": "[KIRA6, 1-(4-(8-amino-3-tert-butylimidazo[1,5-a]pyrazin-1-yl)naphthalen-1-yl)-3-(3-(trifluoromethyl)phenyl)urea]", "values": [{"measurement": "IC50", "result": 40.1, "unit": "nM"}]}
